# Source: patent publication US12303517B1, “Oral testosterone therapy” (Lipocine, Inc., priority 2016, dated 2025)
# Columns and labels:
# [1] = Single fixed dose dosing regimen examples for safety and efficacy (serum T Cmax / Cavg criteria), with food; assay type: in vivo, human
# [2] = Randomized double-blind placebo-controlled dose escalating clinical study of oral T13 in hypogonadal males (serum testosterone pharmacokinetics); assay type: in vivo, human; details: for T Cavg (±SD) / T Cmax (±SD) / % with Cavg/day > 300 ng/dL / % with Cmax/dose < 1,500 ng/dL: hypogonadal males; for % with Cavg/day > 300 ng/dL / % with Cmax/dose < 1,500 ng/dL: serum T
# Procedure: Dosage Form Example B of Composition 4 with dosing regimen (Regimen #. 1-9) of dosing category BID-equal dose with daily dose range 500-1250 mg of T13 in this invention were used for a clinic study of Testosterone Therapy for hypogonadal males.
# This Clinical Study is a Randomized Double-Blind, Placebo-Controlled Dose Escalating Study of the Safety, Efficacy, Tolerability, and Pharmacokinetics of Testosterone Therapy in Hypogonadal Males. This clinic study was a single and multiple, ascending-dose study that was designed to determine the optimal starting, titration (if appropriate), or single fixed dose for safety and efficacy targeted by US FDA. The study also verified the time for testosterone levels to reach steady state and identified a suitable single fixed dose dosing regimen that satisfies unmet need for safety and efficacy for oral TRT.
# This study was carried out with conditions of a single-center, randomized, double-blind, placebo-controlled, ascending multiple-dose, and serial-group in adult hypogonadal male subjects. The objectives of this study were: • a) To assess the safety, efficacy, and tolerability of escalating single and multiple oral doses of T13 dosage forms in hypogonadal males • b) To determine the pharmacokinetics (PK) of testosterone (T), DHT, TT, DHTT, and estradiol (E2) after single and multiple oral doses of TT dosage forms in hypogonadal males • c) To identify single fixed dose dosing regimen satisfying USFDA target, not needing to titrate for restoring average serum T levels in hypogonadal males to the normal T range.
# The dosing regimen for this clinic study ranged from 500 mg daily dose to 1250 mg daily dose with […]. Observed pharmacokinetic parameters (T, DHT, T13, DHTT, and E2) after single and multiple oral doses of T13 dosage forms in the patients were recorded by each daily dose in the report. […] The overall analyzed results of this clinic study were plotted according to % of patients for safety (Cmax <1,500 ng/dL) and efficacy (Cavg >300 ng/dL) with a variety of dosing regimen. Its results are shown in the below table.
# [3] = Regimen 12, BID-equal dose (AM/PM) 375/375 mg T13, with food with at least 10 g of fat
# [4] = Regimen 13, BID-equal dose (AM/PM) 400/400 mg T13, with food with at least 10 g of fat
# [5] = Regimen 14, BID-equal dose (AM/PM) 450/450 mg T13, with food with at least 10 g of fat
# [6] = Regimen 15, BID-equal dose (AM/PM) 500/500 mg T13, with food with at least 10 g of fat
# [7] = Regimen 16, BID-equal dose (AM/PM) 550/550 mg T13, with food with at least 10 g of fat
# [8] = Regimen 17, BID-equal dose (AM/PM) 575/575 mg T13, with food with at least 10 g of fat
# [9] = Regimen 18, BID-equal dose (AM/PM) 625/625 mg T13, with food with at least 10 g of fat
# [10] = 750 mg T13 QD dose at steady state (14 days)
# [11] = daily dose 500 mg T13 (equivalent T dose 298 mg)
# [12] = daily dose 700 mg T13 (equivalent T dose 417 mg)
# [13] = daily dose 750 mg T13 QD (equivalent T dose 446 mg)
# [14] = daily dose 800 mg T13 (equivalent T dose 476 mg)
# [15] = daily dose 900 mg T13 (equivalent T dose 536 mg)
# [16] = daily dose 1000 mg T13 QD (equivalent T dose 595 mg)
# [17] = daily dose 1100 mg T13 (equivalent T dose 655 mg)
# [18] = daily dose 1150 mg T13 (equivalent T dose 685 mg)
# [19] = daily dose 1250 mg T13 (equivalent T dose 744 mg)
smiles,measurement,setting,value
"CCCCCCCCCCCCC(=O)O[C@H]1CC[C@H]2[C@@H]3CCC4=CC(=O)CC[C@]4(C)[C@H]3CC[C@]12C [T13, testosterone tridecanoate]",Cavg > 300 ng/dL ≥75% patients,[1]; [3],Yes
same,Cavg > 300 ng/dL ≥80% patients,[1]; [3],No
same,Cmax > 1500 ng/dL <15% patients,[1]; [3],Yes
same,Cmax > 1500 ng/dL <20% patients,[1]; [3],Yes
same,Cmax > 1800 ng/dL <5% patients,[1]; [3],Yes
same,Cmax > 1800 ng/dL <10% patients,[1]; [3],Yes
same,Cmax > 2500 ng/dL <2% patients,[1]; [3],Yes
same,Cmax > 2500 ng/dL none of patients,[1]; [3],Yes
same,Cavg > 300 ng/dL ≥75% patients,[1]; [4],Yes
same,Cavg > 300 ng/dL ≥80% patients,[1]; [4],Yes
same,Cmax > 1500 ng/dL <15% patients,[1]; [4],Yes
same,Cmax > 1500 ng/dL <20% patients,[1]; [4],Yes
same,Cmax > 1800 ng/dL <5% patients,[1]; [4],Yes
same,Cmax > 1800 ng/dL <10% patients,[1]; [4],Yes
same,Cmax > 2500 ng/dL <2% patients,[1]; [4],Yes
same,Cmax > 2500 ng/dL none of patients,[1]; [4],Yes
same,Cavg > 300 ng/dL ≥75% patients,[1]; [5],Yes
same,Cavg > 300 ng/dL ≥80% patients,[1]; [5],Yes
same,Cmax > 1500 ng/dL <15% patients,[1]; [5],Yes
same,Cmax > 1500 ng/dL <20% patients,[1]; [5],Yes
same,Cmax > 1800 ng/dL <5% patients,[1]; [5],Yes
same,Cmax > 1800 ng/dL <10% patients,[1]; [5],Yes
same,Cmax > 2500 ng/dL <2% patients,[1]; [5],Yes
same,Cmax > 2500 ng/dL none of patients,[1]; [5],Yes
same,Cavg > 300 ng/dL ≥75% patients,[1]; [6],Yes
same,Cavg > 300 ng/dL ≥80% patients,[1]; [6],Yes
same,Cmax > 1500 ng/dL <15% patients,[1]; [6],Yes
same,Cmax > 1500 ng/dL <20% patients,[1]; [6],Yes
same,Cmax > 1800 ng/dL <5% patients,[1]; [6],Yes
same,Cmax > 1800 ng/dL <10% patients,[1]; [6],Yes
same,Cmax > 2500 ng/dL <2% patients,[1]; [6],Yes
same,Cmax > 2500 ng/dL none of patients,[1]; [6],Yes
same,Cavg > 300 ng/dL ≥75% patients,[1]; [7],Yes
same,Cavg > 300 ng/dL ≥80% patients,[1]; [7],Yes
same,Cmax > 1500 ng/dL <15% patients,[1]; [7],Yes
same,Cmax > 1500 ng/dL <20% patients,[1]; [7],Yes
same,Cmax > 1800 ng/dL <5% patients,[1]; [7],Yes
same,Cmax > 1800 ng/dL <10% patients,[1]; [7],Yes
same,Cmax > 2500 ng/dL <2% patients,[1]; [7],Yes
same,Cmax > 2500 ng/dL none of patients,[1]; [7],Yes
same,Cavg > 300 ng/dL ≥75% patients,[1]; [8],Yes
same,Cavg > 300 ng/dL ≥80% patients,[1]; [8],Yes
same,Cmax > 1500 ng/dL <15% patients,[1]; [8],Yes
same,Cmax > 1500 ng/dL <20% patients,[1]; [8],Yes
same,Cmax > 1800 ng/dL <5% patients,[1]; [8],Yes
same,Cmax > 1800 ng/dL <10% patients,[1]; [8],Yes
same,Cmax > 2500 ng/dL <2% patients,[1]; [8],Yes
same,Cmax > 2500 ng/dL none of patients,[1]; [8],Yes
same,Cavg > 300 ng/dL ≥75% patients,[1]; [9],Yes
same,Cavg > 300 ng/dL ≥80% patients,[1]; [9],Yes
same,Cmax > 1500 ng/dL <15% patients,[1]; [9],Yes
same,Cmax > 1500 ng/dL <20% patients,[1]; [9],Yes
same,Cmax > 1800 ng/dL <5% patients,[1]; [9],Yes
same,Cmax > 1800 ng/dL <10% patients,[1]; [9],Yes
same,Cmax > 2500 ng/dL <2% patients,[1]; [9],Yes
same,Cmax > 2500 ng/dL none of patients,[1]; [9],Yes
same,T Cavg (±SD),[2]; [10],352 (±41) ng/dL
same,T Cmax (±SD),[2]; [10],822 (±254) ng/dL
same,T Cavg (±SD),[2]; 1000 mg QD dose at steady state (14 days),405 (±148) ng/dL
same,T Cmax (±SD),[2]; 1000 mg T13 QD dose at steady state (14 days),930 (±326) ng/dL
same,% with Cavg/day > 300 ng/dL,[2]; [11],36.3%
same,"% with Cmax/dose < 1,500 ng/dL",[2]; [11],100.0%
same,% with Cavg/day > 300 ng/dL,[2]; [12],71.5%
same,"% with Cmax/dose < 1,500 ng/dL",[2]; [12],100.0%
same,% with Cavg/day > 300 ng/dL,[2]; [13],76.2%
same,"% with Cmax/dose < 1,500 ng/dL",[2]; [13],99.5%
same,% with Cavg/day > 300 ng/dL,[2]; [14],80.0%
same,"% with Cmax/dose < 1,500 ng/dL",[2]; [14],98.8%
same,% with Cavg/day > 300 ng/dL,[2]; [15],85.0%
same,"% with Cmax/dose < 1,500 ng/dL",[2]; [15],96.7%
same,% with Cavg/day > 300 ng/dL,[2]; [16],88.1%
same,"% with Cmax/dose < 1,500 ng/dL",[2]; [16],92.8%
same,% with Cavg/day > 300 ng/dL,[2]; [17],90.0%
same,"% with Cmax/dose < 1,500 ng/dL",[2]; [17],85.6%
same,% with Cavg/day > 300 ng/dL,[2]; [18],90.7%
same,"% with Cmax/dose < 1,500 ng/dL",[2]; [18],80.0%
same,% with Cavg/day > 300 ng/dL,[2]; [19],91.6%
same,"% with Cmax/dose < 1,500 ng/dL",[2]; [19],66.8%
same,US FDA T level target for safety and efficacy for testosterone replacement therapy,"[2]; single fixed dose, no titration, 750 mg to 1100 mg daily dose of T13",satisfies US FDA T level target for safety and efficacy
